Measurements from patent EP3283473B1, “GHRELIN O-ACYL TRANSFERASE INHIBITORS” (Eli Lilly and Company, priority 2015, dated 2016).

Target: T1, human GOAT (Homo sapiens, UniProt Q96T53)
T1 construct: His; made in house; host or cells: Sf9 insect cells (baculovirus, pAN51 vector); microsomal membrane preparation
T1 sequence (Q96T53 1-435): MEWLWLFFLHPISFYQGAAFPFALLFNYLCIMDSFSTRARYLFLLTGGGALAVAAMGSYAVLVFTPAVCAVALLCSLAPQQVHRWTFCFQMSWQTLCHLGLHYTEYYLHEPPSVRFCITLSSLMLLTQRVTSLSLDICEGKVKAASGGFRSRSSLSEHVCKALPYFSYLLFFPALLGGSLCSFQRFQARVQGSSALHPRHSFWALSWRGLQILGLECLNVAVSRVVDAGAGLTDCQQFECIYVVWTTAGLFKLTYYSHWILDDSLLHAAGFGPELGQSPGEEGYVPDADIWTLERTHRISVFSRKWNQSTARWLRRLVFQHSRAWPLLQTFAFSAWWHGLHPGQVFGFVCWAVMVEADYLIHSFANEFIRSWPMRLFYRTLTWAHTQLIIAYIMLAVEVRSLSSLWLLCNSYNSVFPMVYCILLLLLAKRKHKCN
Assay: In vitro cell free human GOAT enzymatic assay
Type: biochemical
Details: GOAT-His/sf9 membrane preparation
Method: Human GOAT gene (Accession number: NM_001100916) is subcloned to pAN51 baculoviral expression vector. Baculovirus stock is prepared following the Bac-to-Bac Protocol provided by the vendor, Invitrogen, California, USA. Five mililiters of human GOAT baculoviral stock are added to 500 mL Sf9 cells in HyQ SFX-Insect™ media (HyClone catalog number SH30278.02) at the density of 1 × 10^6 cells per milliliter in a 2 L Erlenmeyer flask. The flask with human GOAT gene infected Sf9 cells is put on a plate shaker at 120 rpm at 28 °C for 48 hours. After 48 hours incubation, cells are centrifuged at 1,000xg for 10 min at 4 °C. The cell pellets are collected and stored at -80 °C in a freezer until ready for further processing.
One gram cell pellets are suspended in 9 mL chilled homogenization buffer (50 mM Tris-HCl, 250 mM sucrose, adjusted to pH 7.5 and sterile filtered through 0.2 µm Millipore filter). The cell suspension is transferred to a Dounce glass homogenizer. Cell pellets are homogenized with 40 strokes on ice. The homogenate is centrifuged at 3,000 rpm in a Beckman swing bucket rotor at 4 °C for 10 min to remove unbroken cells. The supernatant is collected and centrifuged at 40,000 xg for 1 hour at 4 °C. The resulting membrane pellet is suspended in the homogenization buffer using a Dounce glass homogenizer and stored at -20 °C in the freezer for the assay. For long term storage of the human GOAT enzyme membrane preparation, the suspended membrane is stored in a -80 °C freezer.
Prepare test compounds in DMSO to make up a 0.2 mM stock solution. Serially dilute the stock solution in DMSO to obtain a ten-point dilution curve with final compound concentrations ranging from 10 µM to 0.5 nM in a 96-well round-bottom plate. Prepare enzyme and substrate solutions in assay buffer (0.02% TWEEN™-20 in 50 mM Tris, pH 7.5/250 mM sucrose/1 mg/mL BSA/10 mM EDTA). Add diluted compound (1 µL) to each well of row A to N of a corresponding low protein binding 384 well plate. Add human GOAT substrate mix (10 µL), consisting of human desacyl-ghrelin-biotin (CPC Scientific Inc., 6.0 µM final), octanoyl-coenzyme A (CoA) (Sigma, 60 µM final) and an AG specific antibody (WO 2006/091381)(1.0 µg/mL final), to the compounds. Add GOAT-His/sf9 enzyme preparation, that has been prepared in assay buffer (9 µL), to each well of the plate containing substrate and test compounds resulting in a final concentration of 0.01 µg/mL to initiate the reaction. Incubate the mixture for 1 hour at RT on a gently rotating oscillator. Add 4M guanidine hydrochloride (20 µL) to all wells, mix, and incubate for 3 hours to stop the reaction.
Prepare ELISA plates (STREPTAVIDIN SPECTRAPLATE™ 384, Perkin Elmer) by blocking with 2% Heat-Inactivated FBS in PBS (40 µL) (Invitrogen) blocking buffer for 3 hours. Aspirate the blocking buffer from ELISA plate and add blocking buffer (23 µL) to columns 1-24, rows A-N. Reserve rows O and P for the acylghrelin standard curve. Add the reaction mix (2 µL) to the ELISA plates. Prepare a 10 point standard curve (biotin-labeled octanoyl-ghrelin) by serial 2X dilution in blocking buffer containing 0.2M Guanidine hydrochloride starting at 2.5 pM. Incubate the reaction mixture or biotin-labeled AG standard in the ELISA plate overnight at 4 °C. The following day, wash the plate 3× with wash buffer (0.1% TWEEN™-20/PBS, 100 µL per well in each wash cycle). […] Read plates at 450 nm using an ENVISION® Multilabel plate reader. […]

IC20: 69.5 ± 0.6 nM
SMILES: Cc1nc(C(F)(F)F)nc(N)c1CCC1CCN(C(=O)[C@H](C)NC(=O)c2ccnn2C)CC1 [Example 2, N-[(1S)-2-[4-[2-[4-Amino-6-methyl-2-(trifluoromethyl)pyrimidin-5-yl]ethyl]-1-piperidyl]-1-methyl-2-oxo-ethyl]-2-methyl-pyrazole-3-carboxamide]
